CC50 and EC90 data for 5 compounds are collected here from patent US10450263B2, “Benzo annulenes as antiviral agents” (Southern Research Institute, priority 2017, dated 2019).

The nature of data set [1]: CC50 reported alongside the CHIKV antiviral assay (cytotoxicity). Format: cell-based. The note with it: cell line not given. The source says: (§1) The compounds below in Table 1 were synthesized with methods identical or analogous to those described herein. The requisite starting materials were commercially available, described in the literature, or readily synthesized by one skilled in the art of organic synthesis.

A further data set concerns Chikungunya virus. The data set can be described thus: Evaluation of antiviral activity against Chikungunya virus (EC90). In kind it is cell-based. The note with it: Chikungunya virus, read-out: EC90 (μM) CHIKV, concentration required for 90% inhibition of CHIKV.
From the text: EC90 refers to the concentration of the compound that is required for 90% antagonism or inhibition of CHIKV. EC90 also refers to the concentration of a substance that is required for 90% antagonism or inhibition of CHIKV in vivo.
as §1

The structures appear in SMILES notation. Bounds are passed on as bounds.

Broadly, the CC50 is the concentration giving 50% cytotoxicity. `CC(C)(C)c1ccc(C(=O)Nc2cc3c(cc2OCc2ccccn2)CCCCC3)cc1` [Compound 85, 4-(tert-Butyl)-N-(3-(pyridin-2-ylmethoxy)-6,7,8,9-tetrahydro-5H-benzo[7]annulen-2-yl)benzamide]: in data set [1], the CC50 was 9.4 µM. Also, the EC90 in the data set with Chikungunya virus is over 10 µM.
For `COc1cc2c(cc1NC(=O)c1ccc(C(C)(C)C)cc1)CCCCN2C` [Compound 65, 4-(tert-butyl)-N-(8-methoxy-1-methyl-2,3,4,5-tetrahydro-1H-benzo[b]azepin-7-yl)benzamide], in that order: over 30 µM and over 30 µM.
Compound `COc1cc2c(cc1NC(=O)c1ccc(C(C)(C)CO)cc1)CCCCC2` [Compound 47] gave a CC50 in data set [1] of 96.3 µM. In addition, the EC90 in the data set on Chikungunya virus amounted to 7.1 µM.
The like results for `COc1c(NC(=O)c2ccc(C(C)(C)C)cc2)cc2c(c1F)CCCCC2` [Compound 23, 4-(tert-butyl)-N-(4-fluoro-3-methoxy-6,7,8,9-tetrahydro-5H-benzo[7]annulen-2-yl)benzamide] were, in that order, over 30 µM and 12.5 µM.
The like results for `COc1cc2c(cc1NC(=O)c1ccc(C(C)(C)C)cc1)CCCCN2` [Compound 64, 4-(tert-butyl)-N-(8-methoxy-2,3,4,5-tetrahydro-1H-benzo[b]azepin-7-yl)benzamide] were, in that order, over 30 µM and 3.3 µM.
